Measured values: patent EP1774974A1, “Use of hyperforin or St. John's Wort in the treatment and prevention of metabolic syndrome” (Roots, Ivar, priority 2005, dated 2007)

Legend:
HepG2 cells [1] = assay: Affymetrix HG U95Av2 microarray gene expression analysis; type: cell-based, human; details: 1 µM hyperforin, 24 h
Protocol: (§1) HepG2 cells (human hepatocellular carcinoma, German Collection of Microorganisms and Cell Cultures, DSMZ, Braunschweig, Germany) were grown in Dulbecco's Modified Eagle Medium containing 1 g/l D-glucose and 5% fetal bovine serum with 5% CO2 at 37°C. Cells were seeded in 6-well dishes and grown to confluence. Content of 1 Esbericum™ capsule (total hypericin […], Schaper & Bruemmer, Salzgitter, Germany) was extracted with 1 ml ethanol. Cells were treated with either this extract (final concentration 0.1% (v/v)), or 1 µM hyperforin (Calbiochem, Schwalbach, Germany), or 0.1 % ethanol (controls) for 24 h. Three independent experiments were performed.
(§2) Cells were washed twice with phosphate buffered saline, harvested in lysis buffer (Qiagen, Hilden, Germany) with a rubber-policeman and homogenised by centrifugation through a Qiashredder (Qiagen, Hilden, Germany). Preparation of total RNA was performed using a Qiagen RNeasy Mini Kit according to the manufacturer's instructions. RNA concentration was determined photometrically (Uvicon photometer, Kontron). RNA was either used immediately for cDNA synthesis or stored at -80°C.
Expression analysis was performed with Affymetrix HG U95Av2 microarray (Affymetrix, Santa Clara, CA). Synthesis of biotin-labelled cRNA and hybridisation were carried out following the Affymetrix protocol. Results were exported to Excei for analysis.

HepG2 cells [2] = assay: Real-time RT-PCR gene expression analysis; type: cell-based, human; details: 1 µM hyperforin, 24 h, vs. control, geometric mean of three experiments
Protocol: as §1, §2
5 µg RNA was reverse transcribed in a total volume of 20 µl containing 200 U SuperScript™ II RT and 1x reaction buffer (Invitrogen, Karlsruhe, Germany), 500 ng pd(T)12-18 (Amersham Pharmacia Biotech, Freiburg, Germany) and 125 pmol/µl of each dNTP at 42°C for 1 h. Real-time PCR was performed with QuantiTect™ SYBR® Green PCR Kit (Qiagen, Hilden, Germany) according to the manufacturer's instructions. The reaction was carried out in a LightCycler (Roche, Mannheim, Germany), version 5.32, and analysed using the Second Derivative Maximum method.

[3] = vs. control, geometric mean of three experiments

Hyperforin
differentially regulated sequences that were upregulated (HepG2 cells [1]): 120 sequences | sequences identified as differentially regulated (p<0.05) (HepG2 cells [1]): 201 sequences | Fold change of ALDOA transcript, Array (HepG2 cells [1]; [3]): 1.41 | Fold change of ENO2 transcript, Array (HepG2 cells [1]; [3]): 2.75 | Fold change of FDPS transcript, Array (HepG2 cells [1]; [3]): 0.53 | Fold change of IGFBP3 transcript, Array (HepG2 cells [1]; [3]): 8.79 | Fold change of LDHA transcript, Array (HepG2 cells [1]; [3]): 1.36 | Fold change of LDHB transcript, Array (HepG2 cells [1]; [3]): 1.42 | Fold change of MVD transcript, Array (HepG2 cells [1]; [3]): 0.26 | Fold change of PCK2 transcript, Array (HepG2 cells [1]; [3]): 0.43 | Fold change of PFKFB3 transcript, Array (HepG2 cells [1]; [3]): 1.83 | Fold change of PGK1 transcript, Array (HepG2 cells [1]; [3]): 1.50 | Fold change of PKM2 transcript, Array (HepG2 cells [1]; [3]): 1.40 | Fold change of SLC2A1 transcript, Array (HepG2 cells [1]; [3]): 1.74 | Fold change of SLC2A3 transcript, Array (HepG2 cells [1]; [3]): 3.57 | Fold change of SLC25A8 / UCP2 transcript, Array (HepG2 cells [1]; [3]): 0.54 | Fold change of TM7SF2 transcript, Array (HepG2 cells [1]; [3]): 0.52 | Fold change of ALDOA transcript, RT-PCR (HepG2 cells [2]): 1.42 | Fold change of FDPS transcript, RT-PCR (HepG2 cells [2]): 0.49 | Fold change of IGFBP3 transcript, RT-PCR (HepG2 cells [2]): 8.29 | Fold change of MVD transcript, RT-PCR (HepG2 cells [2]): 0.56 | Fold change of PCK2 transcript, RT-PCR (HepG2 cells [2]): 0.49 | Fold change of SLC2A1 transcript, RT-PCR (HepG2 cells [2]): 1.90 | Fold change of SLC2A3 transcript, RT-PCR (HepG2 cells [2]): 2.84
